# Measured values: patent US20150174194A1, “METHODS FOR TREATING LIVER TRANSPLANT RECIPIENTS” (AbbVie Inc., priority 2013, published 2015)
# Tests used:
# [1] = Immunosuppressant blood concentrations in liver transplant recipients co-dosed with 3D; format: in vivo, human
# Description: Patients (n=34) on stable TAC or CSA therapy, at least 12 months post-LT, fibrosis stage <F2, received 3D +RBV for 24 weeks. When co-dosed with 3D, it was recommended that the prestudy total CSA daily dose be reduced to one-fifth and given QD. For TAC, a dose of 0.5 mg/7 days or 0.2 mg/3 days was recommended. Subsequent dose and dosing frequency modifications in TAC were made based on the individual TAC levels. Observed CSA trough concentrations (Ctrough) were summarized for CSA recipients (n=5) while TAC data (n=29) were interrogated further to profile on-study TAC Ctroughs. A nonlinear mixed effects model was used to characterize TAC concentration-time profiles using NONMEM software. A one compartment pharmacokinetic (PK) model with first order oral absorption and between subject variability on apparent clearance was used to describe the TAC data. The model estimated TAC PK parameters were used to predict TAC concentration-time profiles in order to evaluate TAC dosing strategies when co-dosed with 3D.
# [2] = human, in vivo
# Excerpt: The Example summarizes the management of concentrations of the immunosuppressants, tacrolimus (TAC) and cyclosporine (CSA) during the treatment.
# [3] = co-dosed with 3D, TAC dose 0.2-1 mg, CSA dose 25-75 mg, liver transplant recipients
smiles,measurement,setting,value
"C=CC[C@@H]1/C=C(\C)C[C@H](C)C[C@H](OC)[C@H]2O[C@@](O)(C(=O)C(=O)N3CCCC[C@H]3C(=O)O[C@H](/C(C)=C/[C@@H]3CC[C@@H](O)[C@H](OC)C3)[C@H](C)[C@@H](O)CC1=O)[C@H](C)C[C@@H]2OC [TAC, tacrolimus]",Concentrations with recommended dose modifications,[1]; LT recipients with GT1 HCV infection receiving 3D,within the therapeutic range
same,"Blood concentration, interquartile range (IQR)",[1]; [3],3.3 to 6.6 ng/mL
same,"Blood concentration, median",[1]; [3],4.6 ng/mL
same,Increase in concentration 24 hours after co-dosing with 3D,[2],17 fold
